From ChEMBL document CHEMBL1155139 (Antimicrob Agents Chemother, 2007)
≈ marks a conversion by molar mass, not a printed value.

Legend:
Plasmodium berghei [1] = test: Antimalarial activity as reduced parasitaemia at day 3 against Plasmodium berghei infected MORO mice (Mus musculus) at 100 mg/kg subcutaneous dose; format: functional; set-up: scale not given: the % may be the effect or the level left
Plasmodium berghei [2] = test: Antimalarial activity as reduced parasitaemia at day 3 against Plasmodium berghei infected MORO mice (Mus musculus) at 100 mg/kg peroral dose; format: functional; set-up: scale not given: the % may be the effect or the level left; conditions: route oral
Plasmodium falciparum [3] = test: Antimalarial activity against Plasmodium falciparum FcB1; format: functional, organism-based; conditions: FcB1/Columbia
Plasmodium falciparum [4] = test: Antimalarial activity against Plasmodium falciparum NF54; format: functional, organism-based
Plasmodium falciparum [5] = test: Antimalarial activity against Plasmodium falciparum K1; format: functional, organism-based

C[C@@H]1CCCCC12OOC1(CCCC[C@@H]1C)OO2 (stereo partly drawn) [WR-148999]
Activity (Plasmodium berghei [1]): 99.99%
Activity (Plasmodium berghei [2]): 99.7%

C1CCCC2(CC1)OOC1(CCCCCC1)OO2
IC50 (Plasmodium falciparum [3]): 0.021 µg/mL (≈ 0.0819 µM)
IC50 (Plasmodium falciparum [4]): 0.011 µg/mL (≈ 0.0429 µM)
Activity (Plasmodium berghei [1]): 56%
IC50 (Plasmodium falciparum [5]): 0.014 µg/mL (≈ 0.0546 µM)
Activity (Plasmodium berghei [2]): 60%

CCCC1(CCC)OOC(CCC)(CCC)OO1
IC50 (Plasmodium falciparum [3]): 0.048 µg/mL (≈ 0.184 µM)
IC50 (Plasmodium falciparum [4]): 0.023 µg/mL (≈ 0.0883 µM)
Activity (Plasmodium berghei [1]): 0%
IC50 (Plasmodium falciparum [5]): 0.04 µg/mL (≈ 0.154 µM)
Activity (Plasmodium berghei [2]): 21%

C[C@@H]1CC[C@H]2[C@@H](C)C(=O)O[C@@H]3O[C@@]4(C)CC[C@@H]1[C@]32OO4 [ARTEMISININ]
IC50 (Plasmodium falciparum [4]): 0.0034 µg/mL (≈ 0.012 µM)
Activity (Plasmodium berghei [1]): 99.99%
Activity (Plasmodium berghei [2]): 98%

C1CCC2(CC1)COC1(CCCCC1)OC2
IC50 (Plasmodium falciparum [4]): > 10 µg/mL
IC50 (Plasmodium falciparum [5]): > 10 µg/mL

CCCCC1(CCCC)OOC(CCCC)(CCCC)OO1
IC50 (Plasmodium falciparum [4]): 0.088 µg/mL (≈ 0.278 µM)
Activity (Plasmodium berghei [1]): 5%
IC50 (Plasmodium falciparum [5]): 0.071 µg/mL (≈ 0.224 µM)
Activity (Plasmodium berghei [2]): 47%

CCCCC1(CCCC)OOC(CCCC)(CCCC)OOC(CCCC)(CCCC)OO1
IC50 (Plasmodium falciparum [4]): > 10 µg/mL
IC50 (Plasmodium falciparum [5]): > 10 µg/mL
